Literature values in US20150182535A1, “Antimicrobial Composition for the Treatment of Methicillin-resistant Staphylococcus aureus” (priority 2014, published 2015).

System: humans

| Structure (SMILES) | toxicity (general statement in words) | safety relative to artemether | toxicity relative to chloroquinine |
| --- | --- | --- | --- |
| C[C@H]1[C@H](N2CCS(=O)(=O)CC2)O[C@@H]2O[C@@]3(C)CC[C@H]4[C@H](C)CC[C@@H]1[C@@]24OO3 [Artemisone] | very low toxicity | – | – |
| C[C@H]1[C@H](OC(=O)CCC(=O)O)O[C@@H]2O[C@@]3(C)CC[C@H]4[C@H](C)CC[C@@H]1[C@@]24OO3 [artesunate] | – | twice as safe | one-fiftieth |
